Where a name gives a salt, the structure may show the parent alone.
Compound	melting point
CCCCOc1ccc(N(C)CCC2(O)CCN(Cc3ccc4c(c3)OCO4)CC2)cc1 (as salt: hydrochloride) [Example 162, 4-[2-[N-(4-n-butoxyphenyl)-N-methylamino]ethyl]-1-(3,4-methylenedioxyphenylmethyl)piperidin-4-ol dihydrochloride]	211 °C (dec.)
CCCCOc1ccc(N(C)CCC2(O)CCN(CCc3ccc(F)cc3)CC2)cc1 (as salt: hydrochloride) [Example 176, 4-[2-[N-(4-n-butoxyphenyl)-N-methylamino]ethyl]-1-[2-(4-fluorophenyl)ethyl]piperidin-4-ol dihydrochloride]	207 °C (dec.)
CCCCOc1ccc(N(C)CCC2(O)CCN(Cc3ccc(F)cc3)CC2)cc1 (as salt: hydrochloride) [Example 177, 4-[2-[N-(4-n-butoxyphenyl)-N-methylamino]ethyl]-1(4-fluorophenylmethyl)piperidin-4-ol dihydrochloride]	209 °C (dec.)
CCCCOc1ccc(N(C)CCC2(O)CCN(CCc3ccc(F)cc3F)CC2)cc1 (as salt: hydrochloride) [Example 183, 4-[2-[N-(4-n-butoxyphenyl)-N-methylamino]ethyl]-1-[2-(2,4-difluorophenyl)ethyl]piperidin-4-ol dihydrochloride]	209 °C (dec.)
CCCCOc1ccc(N(C)CC(O)C2(O)CCN(CCc3ccc(F)cc3)CC2)cc1 (centres unmarked) (as salt: hydrochloride) [Example 196, 4-[2-[N-(4-n-butoxyphenyl)-N-methylamino]-1-hydroxyethyl]-1-[2-(4-fluorophenyl)ethyl]piperidin-4-ol dihydrochloride]	191.2 to 198.7 °C
CCCCOc1ccc(N(C)CCC2(O)CCN(CC(O)c3ccc(F)cc3)CC2)cc1 (centres unmarked) (as salt: hydrochloride) [Example 198, 4-[2-[N-(4-n-butoxyphenyl)-N-methylamino]ethyl]-1-[2-(4-fluorophenyl)-2-hydroxyethyl]piperidin-4-ol dihydrochloride]	174.9 to 184.5 °C
CCCCOc1ccc(N(C)CCC2(OC)CCN(Cc3ccccc3)CC2)cc1 (as salt: hydrochloride) [Example 201, 1-benzyl-4-methoxy-4-[2-[N-(4-n-butoxyphenyl)-N-methylamino]ethyl]piperidine dihydrochloride]	215 °C (dec.)
CC(C)Oc1ccc(N(C)CCC2(O)CCN(Cc3ccc(Br)cc3)CC2)cc1 (as salt: hydrochloride) [Example 220, 1-(4-bromophenylmethyl)-4-[2-[N-methyl-N-(4-isopropoxyphenyl)amino]ethyl]piperidin-4-ol dihydrochloride]	224.4 to 226.2 °C
CC(C)Oc1ccc(N(C)CCC2(O)CCN(Cc3ccc(C(F)(F)F)cc3)CC2)cc1 (as salt: hydrochloride) [Example 221, 4-[2-[N-methyl-N-(4-isopropoxyphenyl)amino]ethyl]-1-[4-(trifluoromethyl)phenylmethyl]piperidin-4-ol dihydrochloride]	241.2 to 242.6 °C
CC(C)Oc1ccc(N(C)CCC2(O)CCN(Cc3ccc(C#N)cc3)CC2)cc1 (as salt: hydrochloride) [Example 226, 1-(4-cyanophenylmethyl)-4-[2-[N-methyl-N-(4-isopropoxyphenyl)amino]ethyl]piperidin-4-ol dihydrochloride]	220.8 to 222.2 °C
CC(C)Oc1ccc(N(C)CCC2(O)CCN(Cc3ccc(OC(F)(F)F)cc3)CC2)cc1 (as salt: hydrochloride) [Example 236, 4-[2-[N-methyl-N-(4-isopropoxyphenyl)amino]ethyl]-1-(4-trifluoromethoxyphenylmethyl)piperidin-4-ol dihydrochloride]	233.2 to 234.9 °C
CC(C)Oc1ccc(N(C)CCC2(O)CCN(Cc3ccc(Br)cc3F)CC2)cc1 (as salt: hydrochloride) [Example 240, 1-(4-bromo-2-fluorophenylmethyl)-4-[2-[N-methyl-N-(4-isopropoxyphenyl)amino]ethyl]piperidin-4-ol dihydrochloride]	228.3 to 229.1 °C
CC(C)Oc1ccc(N(C)CCC2(O)CCN(Cc3cccs3)CC2)cc1 (as salt: hydrochloride) [Example 254, 4-[2-[N-methyl-N-(4-isopropoxyphenyl)amino]ethyl]-1(2-thienylmethyl)piperidin-4-ol dihydrochloride]	216.5 to 217.5 °C
CCCCCOc1ccc(N(C)CCC2(O)CCN(Cc3ccccc3)CC2)cc1 [Example 15, 1-Benzyl-4-[2-[N-methyl-N-(4-n-pentyloxyphenyl)-amino]ethyl]piperidin-4-ol]	58.5 to 60.3 °C
CC(C)COc1ccc(N(C)CCC2(O)CCN(Cc3ccccc3)CC2)cc1 [Example 16, 1-Benzyl-4-[2-[N-(4-isobutoxyphenyl)-N-methylamino]-ethyl]piperidin-4-ol]	50.6 to 52.5 °C
CN(CCC1(O)CCN(Cc2ccccc2)CC1)c1ccc(OC2CCC2)cc1 [Example 17, 1-Benzyl-4-[2-[N-(4-cyclobutoxyphenyl)-N-methylamino]-ethyl]piperidin-4-ol]	68.6 to 69.8 °C
CCCCOc1ccc(N(C)CCC2(O)CCN(Cc3ccc(Cl)cc3)CC2)cc1 [Example 20, 4-[2-[N-(4-n-butoxyphenyl)-N-methylamino]ethyl]-1-(4-chlorophenylmethyl)piperidin-4-ol]	67.7 to 68.3 °C
CCCCOc1ccc(N(C)CCC2(O)CCN(Cc3ccc(C(F)(F)F)cc3)CC2)cc1 [Example 21, 4-[2-[N-(4-n-butoxyphenyl)-N-methylamino]ethyl]-1-[4-(trifluoromethyl)phenylmethyl]piperidin-4-ol]	77.4 to 78.2 °C

Compound	melting point
CCCCOc1ccc(N(C)CCC2(O)CCN(Cc3ccc(C#N)cc3)CC2)cc1 [Example 22, 4-[2-[N-(4-n-butoxyphenyl)-N-methylamino]ethyl]-1(4-cyanophenylmethyl)piperidin-4-ol]	83.5 to 85.5 °C
CCCCOc1ccc(N(C)CCC2(O)CCN(Cc3ccc(C(=O)OC)cc3)CC2)cc1 [Example 23, 4-[2-[N-(4-n-butoxyphenyl)-N-methylamino]ethyl]-1-(4-methoxycarbonylphenylmethyl)piperidin-4-ol]	82.5 to 82.8 °C
CCCCOc1ccc(N(C)CCC2(O)CCN(Cc3ccc(N(C)C)cc3)CC2)cc1 [Example 24, 4-[2-[N-(4-n-butoxyphenyl)-N-methylamino]ethyl]-1-[4-(dimethylamino)phenylmethyl]piperidin-4-ol]	71.3 to 73 °C
CCCCOc1ccc(N(C)CCC2(O)CCN(Cc3cccc(F)c3)CC2)cc1 [Example 29, 4-[2-[N-(4-n-butoxyphenyl)-N-methylamino]ethyl]-1-(3-fluorophenylmethyl)piperidin-4-ol]	46.7 to 47.2 °C
CCCCOc1ccc(N(C)CCC2(O)CCN(Cc3ccc(F)c(F)c3)CC2)cc1 [Example 30, 4-[2-[N-(4-n-butoxyphenyl)-N-methylamino]ethyl]-1-(3,4-difluorophenylmethyl)piperidin-4-ol]	49.8 to 50.5 °C
CCCCOc1ccc(N(C)CCC2(O)CCN(Cc3ccc(C)cc3)CC2)cc1 [Example 31, 4-[2-[N-(4-n-butoxyphenyl)-N-methylamino]ethyl]-1(4-methylphenylmethyl)piperidin-4-ol]	73.3 to 75 °C
CCCCOc1ccc(N(C)CCC2(O)CCN(C3Cc4ccccc4C3)CC2)cc1 [Example 32, 4-[2-[N-(4-n-butoxyphenyl)-N-methylamino]ethyl]-1-(2,3-dihydro-1H-indene-2-yl)piperidin-4-ol]	94.4 to 94.6 °C
CCCCOc1ccc(N(C)CCC2(O)CCN(CC(O)c3ccccc3)CC2)cc1 (centres unmarked) [Example 54, 4-[2-[N-(4-n-butoxyphenyl)-N-methylamino]-ethyl]-1-(2-phenyl-2-hydroxyethyl)piperidin-4-ol]	104 to 104.8 °C
CCCCOc1ccc(N(C)CCC2(O)CCN(CC(O)c3ccc(F)cc3)CC2)cc1 (centres unmarked) [Example 55, 4-[2-[N-(4-n-butoxyphenyl)-N-methylamino]ethyl]-1-[2-(4-fluorophenyl)-2-hydroxyethyl]piperidin-4-ol]	92.8 to 94.5 °C
CCCCOc1ccc(N(CCC2(O)CCN(Cc3ccccc3)CC2)C(C)=O)cc1 [Example 56, 4-[2-[N-acetyl-N-(4-n-butoxyphenyl)amino]-ethyl]-1-benzylpiperidin-4-ol]	89.7 to 90.6 °C
CCCCOc1ccc(N(CCC2(O)CCN(CCc3ccc(F)cc3)CC2)C(C)=O)cc1 [Example 57, 4-[2-[N-acetyl-N-(4-n-butoxyphenyl)amino]ethyl]-1-[2-(4-fluorophenyl)ethyl]piperidin-4-ol]	121.6 to 122.1 °C
CC(C)Oc1ccc(N(C)CCC2(O)CCN(Cc3ccc(Br)cc3)CC2)cc1 [Example 73, 1-(4-bromophenylmethyl)-4-[2-[N-methyl-N-(4-isopropoxyphenyl)amino]ethyl]piperidin-4-ol]	104.3 to 105 °C
CC(C)Oc1ccc(N(C)CCC2(O)CCN(Cc3ccc(C(F)(F)F)cc3)CC2)cc1 [Example 74, 4-[2-[N-methyl-N-(4-isopropoxyphenyl)amino]ethyl]-1-[4-(trifluoromethyl)phenylmethyl]piperidin-4-ol]	109.9 to 110.6 °C
COc1ccc(CN2CCC(O)(CCN(C)c3ccc(OC(C)C)cc3)CC2)cc1 [Example 76, 1-(4-methoxyphenylmethyl)-4-[2-[N-methyl-N-(4-isopropoxyphenyl)amino]ethyl]piperidin-4-ol]	50.8 to 52.4 °C
COc1cccc(CN2CCC(O)(CCN(C)c3ccc(OC(C)C)cc3)CC2)c1 [Example 77, 1-(3-methoxyphenylmethyl)-4-[2-[N-methyl-N-(4-isopropoxyphenyl)amino]ethyl]piperidin-4-ol]	45.1 to 46.5 °C
CC(C)Oc1ccc(N(C)CCC2(O)CCN(Cc3ccc(F)cc3)CC2)cc1 [Example 78, 1-(4-fluorophenylmethyl)-4-[2-[N-methyl-N-(4-isopropoxyphenyl)amino]ethyl]piperidin-4-ol]	69.2 to 70 °C
CC(C)Oc1ccc(N(C)CCC2(O)CCN(Cc3ccc(C#N)cc3)CC2)cc1 [Example 79, 1-(4-cyanophenylmethyl)-4-[2-[N-methyl-N-(4-isopropoxyphenyl)amino]ethyl]piperidin-4-ol]	108.1 to 109.5 °C
